Experiments:
human TRPA1 ion channel = molecular target: T1, human TRPA1 ion channel (Homo sapiens, UniProt O75762); experiment: Assay A: TRPA1 assay (FLIPR calcium, AITC agonism, HEK293 over-expressing human TRPA1); type: cell-based; conditions: read-out: hTRPA1 IC50
T1 construct: host or cells: HEK293
Procedure: A human HEK293 cell line over-expressing the human TRPA1 ion channel (Perkin Elmer, Product No. AX-004-PCL) is used as a test system for compound efficacy and potency. Compound activity is determined by measuring the effect of compounds on intracellular calcium concentration induced by AITC (Allylisothiocyanate) agonism in a FLIPRtetra system (Molecular Devices).
The cells are obtained as frozen cells in cryo-vials and stored until use at −150° C. Cells are grown in culture medium (MEM/EBSS medium with 10% FCS and 0.4 mg/ML Geneticin). […] For sub-culturing cells are detached from flasks by Versene. At the day before the assay, cells are detached, washed twice with medium (MEM/EBSS medium with 10% FCS) and 20000 cells in 20 μl/well are seeded to Poly D-Lysin biocoated 384-well plates (black, clear bottom, Cat. 356697) from Corning. Plates are incubated for 24 hours at 37° C./5% CO2 before use in the assay.
The test compounds are dissolved in 100% DMSO at a concentration of 10 mM and in a first step diluted in DMSO to a concentration of 5 mM, followed by serial dilution steps in 100% DMSO. Dilution factor and number of dilution steps may vary according to needs. Typically 8 different concentrations by 1:5 dilutions are prepared, further intermediate dilutions (1:20) of the substances are carried out with HBSS/HEPES buffer (1×HEPES, Cat. 14065 from Gibco, 20 mM HEPES, Cat. 83264 from SIGMA, 0.1% BSA Cat. 11926 from Invitrogen, pH 7.4
At the assay day cells are washed 3× with assay puffer, 20 μL buffer remaining in the wells after washing. 10 μL Ca6 kit (Cat. R8191 MolecularDevices) loading buffer in HBSS/HEPES is added to the cells and the plates are incubated with lid for 120 minutes at 37°/5% CO2. 10 μL of compound or controls in HBSS/HEPES buffer/5% DMSO from the intermediate dilution plate are carefully added to the wells. […] Finally 10 μL of the agonist AITC 50 μM dissolved in HBSS/HEPES buffer/0.05% DMSO (final concentration 10 μM) is added to the wells followed by an additional read on the FLIPRtetra device for 10 minutes. The area under the signal curve (AUC) after AITC addition is used for IC50/% inhibition calculations
Data Evaluation and Calculation:
Each assay microtiter plate contains wells with vehicle (1% DMSO) controls instead of compound as controls for AITC induced luminescence (100% CTL; high controls) and wells with vehicle controls without AITC as controls for non-specific changes in luminescence (0% CTL; low controls).
The analysis of the data is performed by the calculation of the area under signal curve of the individual wells. Based on this values the % value for the measurement of each substance concentration is calculated (AUC(sample)−AUC(low))*100/(AUC(high)−AUC(low)) using MegaLab software (in house development). The IC50 values are calculated from the % control values using MegaLab software. Calculation: [y=(a−d)/(1+(x/c)^b)+d], a=low value, d=high value; x=conc M; c=IC50 M; b=hill; y=% ctrl

[1] = Assay B: Microsomal clearance; type: in vitro ADME, human; conditions: compounds of the invention; pooled liver microsomes 1 mg/ml, test compound 1 μM, NADPH, 37° C.
Procedure: Evaluation of Microsomal Clearance Assay B: Microsomal Clearance:
The metabolic degradation of the test compound is assayed at 37° C. with pooled liver microsomes. The final incubation volume of 100 μl per time point contains TRIS buffer pH 7.6 at RT (0.1 M), magnesium chloride (5 mM), microsomal protein (1 mg/ml) and the test compound at a final concentration of 1 μM.
Following a short preincubation period at 37° C., the reactions are initiated by addition of beta-nicotinamide adenine dinucleotide phosphate, reduced form (NADPH, 1 mM) and terminated by transferring an aliquot into solvent after different time points (0, 5, 15, 30, 60 min). Additionally, the NADPH-independent degradation is monitored in incubations without NADPH, terminated at the last time point. The [%] remaining test compound after NADPH independent incubation is reflected by the parameter c(control) (metabolic stability). The quenched incubations are pelleted by centrifugation (10000 g, 5 min). An aliquot of the supernatant is assayed by LC-MS/MS for the amount of parent compound. The half-life (t½ INVITRO) is determined by the slope of the semilogarithmic plot of the concentration-time profile.

[2] = Assay C: Hepatocyte clearance; type: in vitro ADME, human; conditions: compounds of the invention; hepatocyte suspension, 5% species serum, test compound 1 μM, six hours
Procedure: Evaluation of Hepatocyte Clearance Assay C: Hepatocyte Clearance
The metabolic degradation of the test compound is assayed in a hepatocyte suspension. Hepatocytes (cryopreserved) are incubated in Dulbecco's modified eagle medium (supplemented with 3.5 μg glucagon/500 mL, 2.5 mg insulin/500 mL and 3.75 mg/500 mL hydrocortisone) containing 5% species serum.
The cells are incubated for six hours (incubator, orbital shaker) and samples (25 μl) are taken at 0, 0.5, 1, 2, 4 and 6 hours. Samples are transferred into acetonitrile and pelleted by centrifugation (5 min). The supernatant is transferred to a new 96-deepwell plate, evaporated under nitrogen and resuspended.
Decline of parent compound is analyzed by HPLC-MS/MS
CLint is calculated as follows CL_[…]=Dose/AUC=(C0/CD)/(AUD+clast/k)×1000/60. C0: initial concentration in the incubation [μM], CD: cell density of vital cells [10e6 cells/mL], AUD: area under the data [μM×h], clast: concentration of last data point [μM], k: slope of the regression line for parent decline [h−1].
The calculated in vitro hepatic intrinsic clearance can be scaled up to the intrinsic in vivo hepatic Clearance and used to predict hepatic in vivo blood clearance (CL) by the use of a liver model (well stirred model).

T1 sequence (O75762 whole entry): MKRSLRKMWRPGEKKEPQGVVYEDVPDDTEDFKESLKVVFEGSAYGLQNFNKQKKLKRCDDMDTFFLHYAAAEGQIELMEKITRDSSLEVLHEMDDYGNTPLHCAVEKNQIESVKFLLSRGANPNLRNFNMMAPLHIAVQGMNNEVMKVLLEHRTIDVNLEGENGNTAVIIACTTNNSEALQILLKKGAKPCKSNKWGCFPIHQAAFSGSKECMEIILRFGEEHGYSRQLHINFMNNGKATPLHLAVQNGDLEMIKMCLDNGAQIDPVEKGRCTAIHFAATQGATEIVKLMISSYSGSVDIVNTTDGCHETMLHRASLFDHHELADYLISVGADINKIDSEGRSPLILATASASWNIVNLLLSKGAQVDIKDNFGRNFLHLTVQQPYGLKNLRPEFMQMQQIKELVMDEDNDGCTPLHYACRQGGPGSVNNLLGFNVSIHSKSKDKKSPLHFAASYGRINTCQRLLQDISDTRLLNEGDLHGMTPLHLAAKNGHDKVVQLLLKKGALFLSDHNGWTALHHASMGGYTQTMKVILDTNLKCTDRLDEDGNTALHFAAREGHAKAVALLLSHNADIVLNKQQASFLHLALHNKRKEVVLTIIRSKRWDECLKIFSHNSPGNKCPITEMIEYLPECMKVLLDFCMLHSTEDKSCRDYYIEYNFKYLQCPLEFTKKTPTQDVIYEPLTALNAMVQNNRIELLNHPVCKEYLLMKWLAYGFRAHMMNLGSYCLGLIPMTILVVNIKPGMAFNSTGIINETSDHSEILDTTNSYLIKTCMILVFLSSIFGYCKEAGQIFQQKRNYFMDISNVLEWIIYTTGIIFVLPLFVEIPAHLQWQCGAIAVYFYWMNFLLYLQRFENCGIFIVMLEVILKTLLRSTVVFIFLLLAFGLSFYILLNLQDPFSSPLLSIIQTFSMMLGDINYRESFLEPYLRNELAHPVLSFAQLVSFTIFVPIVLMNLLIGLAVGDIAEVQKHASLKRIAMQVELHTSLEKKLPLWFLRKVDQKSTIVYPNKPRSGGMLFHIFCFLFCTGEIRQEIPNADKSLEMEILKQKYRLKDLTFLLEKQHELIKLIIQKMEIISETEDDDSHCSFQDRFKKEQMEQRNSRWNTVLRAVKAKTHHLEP

IC50 (human TRPA1 ion channel)	human LM [1]	human Hepatocytes [2]	Structure (SMILES)
12 nM	<23 % Qh	24 % Qh	NC(=O)c1csc2ncn(Cc3nc(C[C@H](O)c4ccc(I)cc4)no3)c(=O)c12 [Example 5]
22 nM	–	26 % Qh	Cc1ccc([C@@H](O)Cc2noc(Cn3cnc4scc(C(N)=O)c4c3=O)n2)cc1 [Example 7]
57 nM	<23 % Qh	13 % Qh	NC(=O)c1csc2ncn(Cc3nc(C[C@H](O)c4ccc(F)cc4)no3)c(=O)c12 [Example 8]

More lines, now with the values behind:

Structure (SMILES)	IC50 (human TRPA1 ion channel)	human LM [1]	human Hepatocytes [2]
NC(=O)c1csc2ncn(Cc3nc(C[C@H](O)c4ccc(Cl)cc4)no3)c(=O)c12 [Example 1, 3-({3-[(2S)-2-(4-chlorophenyl)-2-hydroxyethyl]-1,2,4-oxadiazol-5-yl}methyl)-4-oxo-3H,4H-thieno[2,3-d]pyrimidine-5-carboxamide]	29 nM	<23 % Qh	22 % Qh
NC(=O)c1csc2ncn(Cc3nc(C[C@H](O)c4cc5ccc(F)cc5s4)no3)c(=O)c12 [Example 2]	7 nM	43 % Qh	36 % Qh
NC(=O)c1csc2ncn(Cc3nc(C[C@H](O)c4cc5ccccc5s4)no3)c(=O)c12 [Example 3]	9 nM	39 % Qh	–
NC(=O)c1csc2ncn(Cc3nc(C[C@H](O)c4cc5cc(Cl)ccc5o4)no3)c(=O)c12 [Example 4]	9 nM	34 % Qh	34 % Qh
NC(=O)c1csc2ncn(Cc3nc(C[C@H](O)c4cc5cc(F)ccc5o4)no3)c(=O)c12 [Example 6]	12 nM	23 % Qh	22 % Qh
NC(=O)c1csc2ncn(Cc3nc(C[C@H](O)c4ccc(Cl)s4)no3)c(=O)c12 [Example 9]	77 nM	27 % Qh	61 % Qh
COc1ccc([C@@H](O)Cc2noc(Cn3cnc4scc(C(N)=O)c4c3=O)n2)cc1 [Example 10]	87 nM	<23 % Qh	19 % Qh
